From patent US10729713B2, “Pharmaceutical composition for treating hepatitis, liver fibrosis, and liver cancer” (GUANGDONG PROVINCIAL HOSPITAL OF CHINESE MEDICINE, priority 2016, dated 2020)
One block for each compound: values may come before it.

Experiments:
[1] = drug modified with monophosphorylation, compared with the control group; cited from earlier work
[2] = Plasma and tissue distribution of Lamivudine in rats, liquid chromatography; type: in vivo, rat; conditions: Lamivudine 15 mg/kg, n = 6
Description: The pharmaceutical composition of the present invention enhances the Lamivudine level in the rat liver. Grouping of the test animals and administration are the same as the Example 1 (except that the drug used is the same as Example 3). The dosage of Lamivudine is 15 mg/kg, and the bupleurum root polysaccharides are at a corresponding dosage. The Lamivudine content was determined by liquid chromatography. 0.1 mL of plasma is added with 10 μL of 0.2 mol ammonium acetate, and then with 1 mL of acetonitrile, vortexed, and centrifuged. The supernatant is collected and injected for determination. 0.1 g of the tissue sample is added with 1 mL of physiological saline, homogenized, and treated following the same method as for the plasma sample. The Lamivudine contents in the plasma and tissue sample are determined.

HBV = assay: Inhibition of HBV replication in HepG2.215 cells (HBsAg/HBeAg by ELISA, HBV gene by fluorescent quantitative PCR); type: cell-based, Hepatitis B Virus; conditions: for Expression of HBV gene / HBeAg / HBsAg: normalized, 100% for control group; for HBeAg / HBsAg: HepG2.215 supernatant, 48 h
Description: The drug of Example 4 is used. The concentration of Adefovir Dipivoxil was 1 μmol, and the vinegar-baked bupleurum root polysaccharides are at a medium dosage in corresponding dosage, one-half of the medium dosage is a low dosage, and twice of the medium dosage is a high dosage.
The experiment is started with HepG2.215 cells that were grown to 80% confluence.
The cells were assigned to 5 groups, comprising a blank control group, a treatment group with Adefovir Dipivoxil, a treatment group with Adefovir Dipivoxil in combination with high dosage of vinegar-baked bupleurum root polysaccharides, a treatment group with Adefovir Dipivoxil in combination with medium dosage of vinegar-baked bupleurum root polysaccharides, and a treatment group with Adefovir Dipivoxil in combination with low dosage of vinegar-baked bupleurum root polysaccharides. Culturing for 48 h after administration, the supernatant is collected, the expression of the HBV gene is determined by fluorescent quantitative PCR, and the HBsAg and HBeAg concentrations are determined by ELISA.
The experiment is started with HepG2.215 cells that are grown to 80% confluence. The cells were assigned to 5 groups, comprising a blank control group, a treatment group with Tenofovir, a treatment group with Tenofovir in combination with high, medium, and low dosage of vinegar-baked bupleurum root polysaccharides. The concentration of Tenofovir is 0.8 μmol, the medium dosage of vinegar-baked bupleurum root polysaccharides is a corresponding dosage in Example 7, one-half of which is the low dosage, and twice of which is the high dosage. Culturing for 48 h after administration, the supernatant is collected, the expression of the HBV gene is determined by fluorescent quantitative PCR, and the HBsAg and HBeAg concentrations are determined by ELISA.

[3] = In vivo distribution of Entecavir in mice; conditions: Entecavir 0.1 mg/kg, 5 consecutive days, combination with high dosage of polysaccharides (as Example 5), n = 6
Description: The bupleurum root polysaccharides enhance the distribution of Entecavir in liver, and reduce its distribution in other tissues.
The drug of Example 5 is used.
20 male mice are fasted for one night, but free accessed to water before the experiment. The animals are divided into three groups according to body weight, including a treatment group with Entecavir, and treatment groups with bupleurum root polysaccharides combined with Entecavir. The animals are administered for 5 consecutive days. The dosage of Entecavir is 0.1 mg/kg, and the corresponding dosage of bupleurum root polysaccharides in Example 5 is a high dosage, one-half of which is a low dosage. The animals are sacrificed after the last administration and the blood, heart, liver, spleen, lung, kidney, intestine, stomach, bone marrow, and brain are taken. 100 μL of plasma is directly precipitated by adding 800 μL of acetonitrile, and the supernatant is frozen and centrifuged. 500 μL of the supernatant is blow dried with nitrogen, and 100 μL of the mobile phase is added for reconstitution, and injected for analysis. 0.1 g of the tissue is added with 1 mL of water and homogenized. The homogenate is treated following the treatment method for the plasma.
Effect of bupleurum root polysaccharides on in vivo distribution of Entecavir (ng/mL)

[4] = Tissue distribution of oxymatrine (OM) and its metabolite matrine (M) in rats, LC-MS; type: in vivo, rat; conditions: po, OM 54 mg/kg single administration, sampled at 20, 60, 240 min, n = 6
Description: The pharmaceutical composition of the present invention enhances the distribution of oxymatrine (OM) in the rat liver. 36 rats are acclimated for 7 days, and randomized into a treatment group with oxymatrine (OM) alone, and a treatment group with a combined drug of the present invention (drug in Example 1). Wherein, the dosage of oxymatrine (OM) is 54 mg/kg, and the bupleurum root polysaccharides are used at a corresponding dosage in Example 1. After a single administration, blood is sampled from the abdominal aorta respectively at 20 min, 60 min, and 240 min. The rat is sacrificed, from which the liver, spleen, lung, kidney, and heart are removed. […] The concentrations of oxymatrine (OM) and its metabolite (M) are determined by LC-MS, the content in the tissue and the area under the curve are calculated.

[5] = tested on: duck hepatitis B virus (DHBV); assay: Effect against duck hepatitis B virus in DHBV-infected ducklings; type: in vivo; conditions: DHBV-infected ducks; Telbivudine 80 mg·kg^−1 alone, gastric perfusion twice a day, 10 days; 100% for control group
[6] = HepG2.215, 48 h, text summary of Table 4
[7] = Adefovir Dipivoxil 1 μmol alone

SMILES: CC(C)(C)C(=O)OCOP(=O)(COCCn1cnc2c(N)ncnc21)OCOC(=O)C(C)(C)C [Adefovir Dipivoxil]
Expression of HBV gene (HBV; HepG2.215, 48 h, Adefovir Dipivoxil 1 μmol alone): 50 ± 5.3% | inhibition rate for gene expression (HBV; [6]): 50% | inhibition rate on the replication of HBV (HBsAg, HBeAg) (HBV; [6]): 60-65% | HBeAg (HBV; [7]): 40 ± 3.4% | HBsAg (HBV; [7]): 35 ± 1.2%

SMILES: Cc1cn([C@@H]2C[C@@H](O)[C@H](CO)O2)c(=O)[nH]c1=O [Telbivudine]
Expression of HBV gene [5]: 50.5 ± 5.3% | HBeAg [5]: 37.2 ± 3.4% | HBsAg [5]: 30 ± 1.3%

SMILES: C[C@H](Cn1cnc2c(N)ncnc21)OCP(=O)(O)O [Tenofovir]
Expression of HBV gene (HBV; HepG2.215, 48 h, Tenofovir 0.8 μmol alone): 45.2 ± 5.3% | HBeAg (HBV; Tenofovir 0.8 μmol alone): 39.8 ± 2.4% | HBsAg (HBV; Tenofovir 0.8 μmol alone): 33.2 ± 1.2%

The next lines start with results.

AUC ([2]; rat heart, read-out: AUC of Lamivudine, Heart): 26.8 ng·h/mL | AUC ([2]; rat kidney, read-out: AUC of Lamivudine, Kidney): 24.3 ng·h/mL | AUC ([2]; rat liver, read-out: AUC of Lamivudine, Liver): 27.3 ng·h/mL | AUC ([2]; rat lung, read-out: AUC of Lamivudine, Lung): 23.1 ng·h/mL | AUC ([2]; rat plasma, read-out: AUC of Lamivudine, Plasma): 25.4 ng·h/mL | AUC ([2]; rat spleen, read-out: AUC of Lamivudine, Spleen): 30.2 ng·h/mL | AUC ([2]; rat stomach, read-out: AUC of Lamivudine, Stomach): 28.8 ng·h/mL
SMILES: Nc1ccn([C@@H]2CS[C@H](CO)O2)c(=O)n1 [Lamivudine]
increase of AUC [1]: 11.2 times | increase of the concentration of Lamivudine in the liver [1]: 7.7 times

Entecavir concentration, Marrow ([3]; mouse bone marrow): 18.9 ng/L | Entecavir concentration, Heart ([3]; mouse heart): 26.14 ng/L | Entecavir concentration, Instine ([3]; mouse intestine): 24.3 ng/L | Entecavir concentration, Kidney ([3]; mouse kidney): 27.5 ng/L | Entecavir concentration, Liver ([3]; mouse liver): 26.8 ng/L | Entecavir concentration, Lung ([3]; mouse lung): 26.3 ng/L | Entecavir concentration, Plasma ([3]; mouse plasma): 30.6 ng/L | Entecavir concentration, Spleen ([3]; mouse spleen): 28.4 ng/L | Entecavir concentration, Stomach ([3]; mouse stomach): 25.6 ng/L
SMILES: C=C1[C@H](CO)[C@@H](O)C[C@@H]1n1cnc2c(=O)[nH]c(N)nc21 [Entecavir]

AUC ([4]; rat heart, read-out: AUC of oxymatrine, Heart): 125 ng·h/mL | AUC ([4]; rat kidney, read-out: AUC of oxymatrine, Kidney): 69.7 ng·h/mL | AUC ([4]; rat liver, read-out: AUC of oxymatrine, Liver): 125 ng·h/mL | AUC ([4]; rat lung, read-out: AUC of oxymatrine, Lung): 366 ng·h/mL | AUC ([4]; rat plasma, read-out: AUC of oxymatrine, Plasma): 520 ng·h/mL | AUC ([4]; rat spleen, read-out: AUC of oxymatrine, Spleen): 64.9 ng·h/mL
SMILES: O=C1CCC[C@@H]2[C@H]3CCC[N+]4([O-])CCC[C@@H](CN12)[C@@H]34 (some centres unmarked) [OM, oxymatrine]
